# According to US9089521B2, “Method for regulating production of hemoglobin beta chains” (priority 2001, dated 2015):
# How the values were obtained:
# acute sickle-cell crises = conditions: stated by The University of Maryland; cited from earlier work
# [1] = tested on: endogenous ferritin-H gene expression in NT-2 (NTERA-2) stem cells; assay: Western blot for ferritin-H in NT-2 cells; assay type: cell-based, human; conditions: Western blot after 8 days in the presence of compound vs DMSO-control, FIG. 21
# Protocol: Cell lines. Human NTERA-2 (NT-2) embryonal carcinoma stem cells (ATCC # CRL-1973) were cultured in DMEM medium with 10% FBS and antibiotics.
# Western blots and quantification. Cell lysates (i.e., extracts of human NT-2 cells) were boiled for 3-5 minutes in SDS buffer, layered onto polyacrylamide gels and were run with SDS electrophoresis buffer at 90 volts for 30 minutes. Electrophoresed samples were then placed in 3% BSA buffer and transferred at 80 volts for 2 hours to blotting membranes. A blocking reaction was performed over night with blocking buffer from ECL advance kit (GE Healthcare Bio-Sciences, NJ), followed by incubation for 4 hours in BSA buffer with fluorescent secondary antibody (1:10000) and primary anti ferritin-H (anti-FtH) polyclonal antiserum (1:1000). Ferritin-H detection was achieved using the LI-COR apparatus to visualize the fuorescent bands and Odyssey software to quantify the stained bands of ferritin-H. Isolation and culture of human mononuclear cells and maturation of erythroid precursor cells are diagrammed in FIG. 22. Whole blood was obtained from pediatric sickle cell patients at the time of scheduled transfusion therapy under an approved IRB protocol. […]
# [2] = tested on: erythroid precursor cells from pediatric sickle cell disease patients; assay: HbS-to-HbF switching in two-phase culture, HPLC of hemoglobins and immuno-HbF fluorescence; assay type: cell-based, human; conditions: FIG. 23
# [3] = tested on: partially purified ferritin-protein from K562 nuclei; assay: Competition gel-shift assay with labeled wt −164/−128 oligonucleotide; assay type: binding, human; conditions: for excess of unlabeled oligonucleotide needed for significant competition with labeled wt sequence: heated K562 nuclear extract protein, FIG. 4B/4C
# Protocol: Preparation of nuclear extracts. Each nuclear extract preparation was made from two liters of K562 cells (1×10^6 cells/ml) using the procedure of Dignam, Lebovitz, and Roeder (Dignam, J. D., Lebovitz, R. M. & Roeder, R. G. (1983) Nucleic Acids Res 11, 1475-89). Protein content of the extracts ranged from 3 to 6 mg/ml. Extracts enriched 80-90% in ferritin-like protein(s) were prepared by treating the crude extracts with proteinase K and/or heat at 75° C. (Atkinson, B. G., Dean, R. L., Tomlinson, J. & Blaker, T. W. (1989) Biochem Cell Biol 67, 52-7).
# Gel mobility shift assays. Gel retardation assays (i.e., gel shifts) were used to determine DNA binding of the extract proteins to the Rsa I (95 bp) fragment and synthetic oligonucleotides (Berg et al., (1989) Nucleic Acids Res 17, 8833-52; Fried & Crothers (1981) Nucleic Acids Res 9, 6505-25). Each reaction contained 0.5-2 ng of DNA, 1.0-5.0 ug of extract protein, 1.0-5.0 ug of poly dI:poly dC, 100 mM KCl, and binding buffer (Berg et al., (1989) Nucleic Acids Res 17, 8833-52). Unlabeled competitor oligonucleotides ranged from 15- to 2000-fold molar excess and were included in the reaction mixture with the probe before adding protein. Gels used for retardation assays were 4%, 5%, or 6% acrylamide and the running buffer was low ionic strength TAE (Berg et al., (1989) Nucleic Acids Res 17, 8833-52).
# Definition of the binding site with competition gel shifts. To further localize the binding of ferritin, the 37 bp oligonucleotide was mutated in different places, replacing six nucleotides at a time with all A's, all C's, or all G's, with complementary nucleotide replacements in the opposing strand (FIG. 4A). A competition gel shift assay was done with the partially purified protein from heated K562 nuclear extract, in which each of the unlabeled mutant oligos as well as the native sequence was competed against the 32-P-labeled native sequence for binding. All mutants competed for binding as well as the native sequence except those mutated in the −153/−148 region, i.e., mutated in the sequence CAGTGC [SEQ ID NO: 6] (e.g., FIG. 4D). […]
# [4] = tested on: distal promoter of the human β-globin gene (−222/−128); assay: Gel mobility shift assay with distal promoter restriction fragment; assay type: binding; conditions: gel retardation assay, FIG. 2a left side
# Source text: Proteins and antibodies. Ferritins from human liver (enriched in L chains) and from human heart (enriched in H chains), human transferrin (iron saturated) and apotransferrin, polyclonal (rabbit) antiserum to human spleen ferritin and nonimmune rabbit serum were obtained from Sigma Chemical Company.
# Restriction fragments and oligonucleotides. The 5′ region of the human β-globin gene (from −610 to +20), previously cloned in pSV2CAT, was cut into three fragments by sequential digestions with Hind III and Rsa I. The three fragments, electroeluted from agarose (Maniatis, T., Fritsch, E. F. & Sambrook, J. (1989) Molecular Cloning: A Laboratory Manual (Cold Spring Harbor Laboratory, Cold Spring Harbor, N.Y.), were 416 bp (−638/−223), 147 bp (−127/+20, containing the proximal promoter region), and 95 bp (the Rsa fragment, −222/−128, containing mainly distal promoter sequences). The three fragments were phenol/chloroform treated, dephosphorylated, and end-labelled with 32-P as described (Maniatis, T., Fritsch, E. F. & Sambrook, J. (1989) Molecular Cloning: A Laboratory Manual (Cold Spring Harbor Laboratory, Cold Spring Harbor, N.Y.); Kurien, B. T., Scofield, R. H., & Broyles, R. H. (1997) Anal Biochem 245, 123-126). […]
molecule,measurement,setting,value
NC(=O)NO [Hydroxyurea],patients on whom the agent has no effect,acute sickle-cell crises,25%
CC1=CC(=O)CC(C)(C)C1(O)/C=C/C(C)=C\C(=O)O (centres unmarked) [abscissic acid],ferritin-H expression in NT-2 cells,[1],activated ferritin-H expression
same,HbS-to-HbF hemoglobin switch,"[2]; administered day 1 of phase II culture with rhEpo, HPLC, observed 23 days to 4 weeks after administration",total switch
same,cellular distribution of HbF production,[2]; immuno-HbF fluorescence,pancellular
"mutant no. 4: double-stranded −164/−128 oligonucleotide mutated in the −153/−148 CAGTGC sequence, SEQ ID NO: 5 (AACTCCTAAGCAAAAAACAGAAGAGCCAAGGACAGGT; double-stranded competitor oligonucleotide, further chemistry not given here)","concentration required for 50% inhibition of binding of labeled probe, relative to wt sequence",[3]; FIG. 4D,20 fold
same,excess of unlabeled oligonucleotide needed for significant competition with labeled wt sequence,[3],"1,000 fold excess"
"transferrin: human transferrin, another iron-binding protein, Sigma",binding to −222/−128 distal promoter fragment,[4],did not bind
"wt: double-stranded wildtype −164/−128 β-globin promoter oligonucleotide, SEQ ID NO: 1 (AACTCCTAAGCCAGTGCCAGAAGAGCCAAGGACAGGT; complementary strand not cited, chemistry not fully specified; listed as Homo sapiens)",excess of unlabeled oligonucleotide needed for significant competition with labeled wt sequence,[3],50 fold excess
